# Key:
# Assay in all cases: Test C greenhouse herbicide test, pre- and postemergence
# Format in all cases: in vivo
# [1] = system: johnsongrass (Sorghum halepense)
# How it was run: (§1)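 Visual ratings on a 0 to 100 scale (0 = no effect, 100 = complete control) versus untreated controls, scored 13–15 d after treatment. Soil-applied preemergence to seeded loam/sand; foliar postemergence to 1- to 4-leaf plants (2–18 cm) in peat-vermiculite mix; compounds formulated in solvent plus surfactant.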
# [2] = system: pigweed (Amaranthus retroflexus)
# How it was run: as §1
# [3] = system: nutsedge, yellow (yellow nutsedge, Cyperus esculentus)
# How it was run: as §1
# corn (Zea mays) = system: corn (Zea mays)
# How it was run: as §1
# [4] = system: barnyardgrass (Echinochloa crus-galli)
# How it was run: as §1
# [5] = system: velvetleaf (Abutilon theophrasti)
# How it was run: as §1
# [6] = system: blackgrass (Alopecurus myosuroides)
# How it was run: as §1
# [7] = system: waterhemp (common waterhemp, Amaranthus rudis)
# How it was run: as §1
# [8] = system: ryegrass, Italian (Italian ryegrass, Lolium multiflorum)
# How it was run: as §1
# [9] = system: galium (catchweed bedstraw, Galium aparine)
# How it was run: as §1
# [10] = system: ragweed (common ragweed, Ambrosia elatior)
# How it was run: as §1
# [11] = system: lambsquarters (Chenopodium album)
# How it was run: as §1
# [12] = system: morningglory (Ipomoea coccinea)
# How it was run: as §1
# [13] = system: wheat (winter wheat, Triticum aestivum)
# How it was run: as §1
# soybean (Glycine max) = system: soybean (Glycine max)
# How it was run: as §1
# [14] = system: foxtail, giant (giant foxtail, Setaria faberii)
# How it was run: as §1
# [15] = Postemergence, 125 g ai/ha, scale 0 to 100, 0 is no effect, 100 is complete control
# [16] = Postemergence, 250 g ai/ha, scale 0 to 100, 0 no effect, 100 complete control, 13 to 15 d
# [17] = Preemergence, 31 g ai/ha, scale 0 to 100, 0 is no effect, 100 is complete control
# [18] = Preemergence, 62 g ai/ha, scale 0 to 100, 0 is no effect, 100 is complete control
# [19] = Preemergence, 125 g ai/ha, scale 0 to 100, 0 is no effect, 100 is complete control
# [20] = Preemergence, 250 g ai/ha, scale 0 to 100 (0 no effect, 100 complete control)
# [21] = postemergence, 62 g ai/ha, scale 0 to 100, 0 no effect, 100 complete control
# [22] = Postemergence, 31 g ai/ha, 0 to 100 scale (0 no effect, 100 complete control)
compound,measurement,setting,value
C#CCOC(=O)Oc1c(C)nn(C)c(=O)c1-c1c(C)sc2ccc(C)cc12 [Compound 87],"Plant response rating, Johnsongrass",[1]; [15],5
same,"Plant response rating, Johnsongrass",[1]; [16],10
same,"Plant response rating, Johnsongrass",[1]; [17],5
same,"Plant response rating, Johnsongrass",[1]; [18],25
same,"Plant response rating, Johnsongrass",[1]; [19],40
same,Johnsongrass plant response rating,[1]; [20],40
same,Johnsongrass plant response rating,[1]; [21],5
same,"Plant response rating, Pigweed",[2]; [15],90
same,"Plant response rating, Pigweed",[2]; [16],98
same,"Plant response rating, Pigweed",[2]; [17],75
same,"Plant response rating, Pigweed",[2]; [18],100
same,"Plant response rating, Pigweed",[2]; [19],100
same,Pigweed plant response rating,[2]; [20],100
same,Pigweed plant response rating,[2]; [21],90
same,"Plant response rating, Nutsedge, Yellow",[3]; [15],80
same,"Plant response rating, Nutsedge, Yellow",[3]; [16],85
same,"Plant response rating, Nutsedge, Yellow",[3]; [17],10
same,"Plant response rating, Nutsedge, Yellow",[3]; [18],35
same,"Plant response rating, Nutsedge, Yellow",[3]; [19],85
same,"Nutsedge, Yellow plant response rating",[3]; [20],80
same,"Nutsedge, Yellow plant response rating",[3]; [21],80
same,Corn plant response rating,corn (Zea mays); [22],5
same,"Plant response rating, Corn",corn (Zea mays); [15],30
same,"Plant response rating, Corn",corn (Zea mays); [16],5
same,"Plant response rating, Corn",corn (Zea mays); [17],0
same,"Plant response rating, Corn",corn (Zea mays); [18],10
same,"Plant response rating, Corn",corn (Zea mays); [19],0
same,Corn plant response rating,corn (Zea mays); [20],10
same,Corn plant response rating,corn (Zea mays); [21],5
same,Barnyardgrass plant response rating,[4]; [22],25
same,"Plant response rating, Barnyardgrass",[4]; [15],35
same,"Plant response rating, Barnyardgrass",[4]; [16],45
same,"Plant response rating, Barnyardgrass",[4]; [17],5
same,"Plant response rating, Barnyardgrass",[4]; [18],35
same,"Plant response rating, Barnyardgrass",[4]; [19],65
same,Barnyardgrass plant response rating,[4]; [20],85
same,Barnyardgrass plant response rating,[4]; [21],25
same,"Plant response rating, Velvetleaf",[5]; [15],90
same,"Plant response rating, Velvetleaf",[5]; [16],90
same,"Plant response rating, Velvetleaf",[5]; [17],55
same,"Plant response rating, Velvetleaf",[5]; [18],85
same,"Plant response rating, Velvetleaf",[5]; [19],90
same,Velvetleaf plant response rating,[5]; [20],90
same,Velvetleaf plant response rating,[5]; [21],85
same,Blackgrass plant response rating,[6]; [22],10
same,"Plant response rating, Blackgrass",[6]; [15],60
same,"Plant response rating, Blackgrass",[6]; [16],65
same,"Plant response rating, Blackgrass",[6]; [17],40
same,"Plant response rating, Blackgrass",[6]; [18],30
same,"Plant response rating, Blackgrass",[6]; [19],85
same,Blackgrass plant response rating,[6]; [20],90
same,Blackgrass plant response rating,[6]; [21],35
same,"Plant response rating, Waterhemp",[7]; [15],90
same,"Plant response rating, Waterhemp",[7]; [16],90
same,"Plant response rating, Waterhemp",[7]; [17],100
same,"Plant response rating, Waterhemp",[7]; [18],100
same,"Plant response rating, Waterhemp",[7]; [19],100
same,Waterhemp plant response rating,[7]; [20],100
same,Waterhemp plant response rating,[7]; [21],80
same,"Plant response rating, Ryegrass, Italian",[8]; [15],85
same,"Plant response rating, Ryegrass, Italian",[8]; [16],85
same,"Plant response rating, Ryegrass, Italian",[8]; [17],35
same,"Plant response rating, Ryegrass, Italian",[8]; [18],90
same,"Plant response rating, Ryegrass, Italian",[8]; [19],90
same,"Ryegrass, Italian plant response rating",[8]; [20],90
same,"Ryegrass, Italian plant response rating",[8]; [21],80
same,"Plant response rating, Galium",[9]; [15],95
same,"Plant response rating, Galium",[9]; [16],98
same,"Plant response rating, Galium",[9]; [17],95
same,"Plant response rating, Galium",[9]; [18],95
same,"Plant response rating, Galium",[9]; [19],98
same,Galium plant response rating,[9]; [20],98
same,Galium plant response rating,[9]; [21],95
same,"Plant response rating, Ragweed",[10]; [15],95
same,"Plant response rating, Ragweed",[10]; [16],100
same,"Plant response rating, Ragweed",[10]; [17],90
same,"Plant response rating, Ragweed",[10]; [18],90
same,"Plant response rating, Ragweed",[10]; [19],95
same,Ragweed plant response rating,[10]; [20],90
same,Ragweed plant response rating,[10]; [21],95
same,"Plant response rating, Lambsquarters",[11]; [15],98
same,"Plant response rating, Lambsquarters",[11]; [16],100
same,"Plant response rating, Lambsquarters",[11]; [17],55
same,"Plant response rating, Lambsquarters",[11]; [18],80
same,"Plant response rating, Lambsquarters",[11]; [19],85
same,Lambsquarters plant response rating,[11]; [20],100
same,Lambsquarters plant response rating,[11]; [21],98
same,"Plant response rating, Morningglory",[12]; [15],100
same,"Plant response rating, Morningglory",[12]; [16],100
same,"Plant response rating, Morningglory",[12]; [17],85
same,"Plant response rating, Morningglory",[12]; [18],90
same,"Plant response rating, Morningglory",[12]; [19],95
same,Morningglory plant response rating,[12]; [20],95
same,Morningglory plant response rating,[12]; [21],98
same,"Plant response rating, Wheat",[13]; [15],0
same,"Plant response rating, Wheat",[13]; [16],0
same,"Plant response rating, Wheat",[13]; [17],0
same,"Plant response rating, Wheat",[13]; [18],0
same,"Plant response rating, Wheat",[13]; [19],0
same,Wheat plant response rating,[13]; [20],0
same,Wheat plant response rating,[13]; [21],0
same,"Plant response rating, Soybean",soybean (Glycine max); [15],10
same,"Plant response rating, Soybean",soybean (Glycine max); [16],5
same,"Plant response rating, Soybean",soybean (Glycine max); [17],0
same,"Plant response rating, Soybean",soybean (Glycine max); [18],0
same,"Plant response rating, Soybean",soybean (Glycine max); [19],100
same,Soybean plant response rating,soybean (Glycine max); [20],0
same,Soybean plant response rating,soybean (Glycine max); [21],0
same,"Plant response rating, Foxtail, Giant",[14]; [15],75
same,"Plant response rating, Foxtail, Giant",[14]; [16],85
same,"Plant response rating, Foxtail, Giant",[14]; [17],70
same,"Plant response rating, Foxtail, Giant",[14]; [18],80
same,"Plant response rating, Foxtail, Giant",[14]; [19],90
same,"Foxtail, Giant plant response rating",[14]; [20],95
same,"Foxtail, Giant plant response rating",[14]; [21],55
